In patent US20100303758A1, “Novel Glucocorticoid Receptor Agonists” (priority 2009, published 2010):

Key:
Type in all cases: cell-based
[1] = test system: tumour necrosis factor-α (TNF-α) release from lipopolysaccharide (LPS) stimulated isolated human peripheral mononuclear cells (PBMC); assay: Inhibition of TNF-α release from LPS stimulated isolated human PBMC; settings: LPS stimulated human PBMC; 1 h pre-incubation, 18 hours after LPS; TNF-α by ELISA
How it was run: (§1)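 Human PBMC from EDTA blood of healthy donors, at 1×10^6 lymphocytes/ml in HBSS/HEPES/BSA buffer, were preincubated with compound (1% DMSO final) for 1 h at 37° C, then stimulated with LPS (added as 100 ng/ml solution) for 18 hours. Supernatant TNF-α was measured by ELISA, and IC50 was derived from dose-response curves.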

[2] = molecular target: T1, human GR (Homo sapiens, UniProt P04150); assay: GR agonist potency, MMTV-luciferase reporter in SW1353 cells; settings: human chondrosarcoma cell-line SW1353 stably transfected with MMTV-luciferase reporter; approx. 18 hours; data as percentage of 1 μM dexamethasone positive control
T1 construct: SW1353 naturally expresses human GR; endogenous in cells; host or cells: human chondrosarcoma cell-line SW1353 stably transfected with an MMTV-luciferase reporter construct
T1 sequence (P04150 1-777): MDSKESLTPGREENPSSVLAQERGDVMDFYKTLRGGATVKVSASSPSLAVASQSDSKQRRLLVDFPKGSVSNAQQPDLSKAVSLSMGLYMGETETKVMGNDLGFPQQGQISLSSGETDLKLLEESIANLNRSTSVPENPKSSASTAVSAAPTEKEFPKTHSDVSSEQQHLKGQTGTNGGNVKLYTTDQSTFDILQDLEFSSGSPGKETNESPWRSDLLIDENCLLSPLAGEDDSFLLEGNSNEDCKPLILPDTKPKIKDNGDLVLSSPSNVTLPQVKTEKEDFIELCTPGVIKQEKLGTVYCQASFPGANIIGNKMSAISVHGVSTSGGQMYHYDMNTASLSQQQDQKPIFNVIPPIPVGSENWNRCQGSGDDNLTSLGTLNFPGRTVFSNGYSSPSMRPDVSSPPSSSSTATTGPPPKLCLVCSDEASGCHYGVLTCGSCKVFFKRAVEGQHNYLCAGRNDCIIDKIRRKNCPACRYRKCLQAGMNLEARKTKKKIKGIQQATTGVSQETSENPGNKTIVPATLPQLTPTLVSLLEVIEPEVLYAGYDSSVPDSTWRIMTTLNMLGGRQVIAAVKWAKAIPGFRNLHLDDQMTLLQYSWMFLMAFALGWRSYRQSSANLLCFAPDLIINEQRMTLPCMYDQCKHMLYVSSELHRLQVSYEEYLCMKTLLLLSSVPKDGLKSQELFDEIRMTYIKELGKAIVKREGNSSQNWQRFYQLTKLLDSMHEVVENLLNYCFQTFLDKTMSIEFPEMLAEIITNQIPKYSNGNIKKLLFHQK
How it was run: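 SW1353 chondrosarcoma cells stably carrying MMTV-luciferase, endogenous GR, exposed to compound ~18 h at 37 °C. Luminescence expressed as percent of 1 μM dexamethasone response; EC50 estimated from dose-response curves.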

[3] = Inhibition of TNF-α release from LPS stimulated isolated human PBMC; settings: Homo sapiens, PBMC, read-out: IC50 (nM) for inhibition of TNF-α release
How it was run: as §1

CC12C=CC(=O)C=C1CCC1C3CCC(OC(=O)c4ccc(Cc5ccccc5)cc4)(C(=O)OCC#N)C3(C)CC(O)C12F (centres unmarked) [Example 9]
IC50 [1]: 0.21 nM

CC12C=CC(=O)C=C1CCC1C3CCC(OC(=O)c4ccc(Sc5ccc(O)cc5)cc4)(C(=O)OCC#N)C3(C)CC(O)C12F (stereo not drawn) [Example 18, cyanomethyl (11beta,17alpha)-9-fluoro-11-hydroxy-17-({4-[(4-hydroxyphenyl)thio]benzoyl}oxy)-3-oxoandrosta-1,4-d iene-17-carboxylate]
IC50 [1]: 0.138 nM
EC50 [2]: 34.9 nM

CC12C=CC(=O)C=C1CCC1C3CCC(OC(=O)c4ccc(Oc5ccc(Cl)c(O)c5)cc4)(C(=O)OCC#N)C3(C)CC(O)C12F (stereo not drawn) [Example 34, cyanomethyl (11beta,17alpha)-17-{[4-(4-chloro-3-hydroxyphenoxy)-benzoyl]oxy}-9-fluoro-11-hydroxy-oxoandrosta-1,4-diene-17-carboxylate]
IC50 [1]: 0.278 nM
EC50 [2]: 100 nM

CSc1ccc(Oc2ccc(C(=O)O[C@]3(C(=O)OCC#N)[C@H](C)C[C@H]4[C@@H]5C[C@H](F)C6=CC(=O)C=C[C@]6(C)[C@@]5(F)[C@@H](O)C[C@@]43C)cc2)cc1 [Example 48, Cyanomethyl (6alpha,11beta,16alpha, 17alpha)-6,9-difluoro-11-hydroxy-16-methyl-17-({4-[4-(methylthio)phenoxy]benzoyl}oxy)-3-oxoandrosta-1,4-diene-17-carboxylate]
IC50 [3]: 0.09 nM
EC50 [2]: 14.2 nM

CSc1cccc(Sc2ccc(C(=O)O[C@]3(C(=O)OCC#N)[C@H](C)C[C@H]4[C@@H]5C[C@H](F)C6=CC(=O)C=C[C@]6(C)[C@@]5(F)[C@@H](O)C[C@@]43C)cc2)c1 [Example 49, Cyanomethyl (6alpha,11beta,16alpha, 17alpha)-6,9-difluoro-11-hydroxy-16-methyl-17-[(4-{[3-(methylthio)phenyl]thio}benzoyl)oxy]-3-oxoandrosta-1,4-diene-17-carboxylate]
IC50 [3]: 0.738 nM
EC50 [2]: 90.8 nM

CSc1ccc(Sc2ccc(C(=O)O[C@]3(C(=O)OCF)[C@H](C)C[C@H]4[C@@H]5C[C@H](F)C6=CC(=O)C=C[C@]6(C)[C@@]5(F)[C@@H](O)C[C@@]43C)cc2)cc1 [Example 50, Fluoromethyl (6alpha,11beta,16alpha, 17alpha)-6,9-difluoro-11-hydroxy-16-methyl-17-[(4-{[4-(methylthio)phenyl]thio}benzoyl)oxy]-3-oxoandrosta-1,4-diene-17-carboxylate]
IC50 [3]: 0.052 nM
EC50 [2]: 11.5 nM

CSc1cccc(Oc2ccc(C(=O)O[C@]3(C(=O)OCF)[C@H](C)C[C@H]4[C@@H]5C[C@H](F)C6=CC(=O)C=C[C@]6(C)[C@@]5(F)[C@@H](O)C[C@@]43C)cc2)c1 [Example 51, Fluoromethyl (6alpha,11beta,16alpha, 17alpha)-6,9-difluoro-11-hydroxy-16-methyl-17-({4-[3-(methylthio)phenoxy]benzoyl}oxy)-3-oxoandrosta-1,4-diene-17-carboxylate]
IC50 [3]: 0.057 nM
EC50 [2]: 8.7 nM

CSc1ccc(Oc2ccc(C(=O)OC3(C(=O)OCF)C(C)CC4C5CC(F)C6=CC(=O)C=CC6(C)C5(F)C(O)CC43C)cc2)cc1 (stereo not drawn) [Example 52, Fluoromethyl (6alpha,11beta,16alpha, 17alpha)-6,9-difluoro-11-hydroxy-16-methyl-17-({4-[4-(methylthio)phenoxy]benzoyl}oxy)-3-oxoandrosta-1,4-diene-17-carboxylate]
IC50 [1]: 0.033 nM
EC50 [2]: 6.05 nM

CSc1cccc(Sc2ccc(C(=O)O[C@]3(C(=O)OCF)[C@H](C)C[C@H]4[C@@H]5C[C@H](F)C6=CC(=O)C=C[C@]6(C)[C@@]5(F)[C@@H](O)C[C@@]43C)cc2)c1 [Example 53]
IC50 [3]: 0.086 nM
EC50 [2]: 11.8 nM
